Results from US6815664B2, “Method for separation of particles” (Genoptix, Inc., priority 2001, dated 2004).

Tests used:
U937 cells = test: Escape velocity of treated and untreated leukemia cells; type: cell-based; details: PMA 5 ug/mL, 37° C., treated for 6 hours
Source text: Separation By Refractive Index—Polystyrene, polymethylmethacrylate and silica particles of similar size (˜5 micrometer diameter, Bangs Labs) and refractive indexes of 1.59, 1.49 and 1.37, respectively, were sorted by moving optical gradient fields. Observed escape velocities for polystyrene, PMMA and silica were 44, 47 and 32 micrometers/second, respectively. Briefly, a particle is aligned in the fringe and the fringes are moved at increasing speed until the particle slips. […] It will be appreciated by those skilled in the art that the absolute value of the escape velocity will differ depending upon system conditions, e.g., laser power. The numerical results provided herein are meant to provide measured data for the system actually used, and are not to be considered a limitation on the values which might exist in a different system.
PMA was dissolved in ethanol at a concentration of 5 mg/mL. 3 mls of U937 cells grown in RPMI 1640 media with supplements were removed from the culture flask and 1 ml was placed into each of three eppendorf tubes. Cells from the first tube were pelleted for 4 minutes at 10,000 rpm and resuspended in 250 uL PBS/1% BSA buffer for escape velocity measurements. PMA was added to the remaining two tubes of U937 cells to a final concentration of 5 ug/mL. These tubes were vortexed and placed in a 37° C. water bath for either one hour or six hours. […]

K562 Cells = test: Escape velocity of cells in a moving optical gradient field (1064 system, CYTOP coated coverslips); type: cell-based; details: K562 cells (chronic myelogenous leukemia, lymphoblast), 26 Hr. Taxol treatment; untreated K562 10.0 +/− 0.7
Source text: Certain of the data reported herein were generated with the following setup. Optical gradient fields were generated using a Michelson interferometer and either a 150 mW, 812 nm laser (812 system) or a 2.5 W, 1064 nm laser (1064 system). The 812 system used a 100× (1.25 NA) oil immersion lens to focus the fringe pattern and to visualize the sample. The 1064 system used a 20× objective to focus the fringes and a 60× objective to visualize the sample. In general the sample cell was a coated microscope slide and/or coverslip that was sealed with Vaseline. Coverslip spacers controlled the height of the cell at approximately 150 micrometers
Separation By Refractive Index—Polystyrene, polymethylmethacrylate and silica particles of similar size (˜5 micrometer diameter, Bangs Labs) and refractive indexes of 1.59, 1.49 and 1.37, respectively, were sorted by moving optical gradient fields. Observed escape velocities for polystyrene, PMMA and silica were 44, 47 and 32 micrometers/second, respectively. […] The numerical results provided herein are meant to provide measured data for the system actually used, and are not to be considered a limitation on the values which might exist in a different system.
Escape velocities were measured using a gradient field generated by the 1064 system on CYTOP coated coverslips.

CCCCCCCCCCCCCC(=O)O[C@@H]1[C@@H](C)[C@@]2(O)[C@@H](C=C(CO)C[C@]3(O)C(=O)C(C)=C[C@@H]23)[C@@H]2C(C)(C)[C@]12OC(C)=O [PMA]
escape velocity as compared to the untreated cells (U937 cells): significantly higher escape velocity

CC(=O)O[C@H]1C(=O)[C@@]2(C)[C@H]([C@H](OC(=O)c3ccccc3)[C@]3(O)C[C@H](OC(=O)[C@H](O)[C@@H](NC(=O)c4ccccc4)c4ccccc4)C(C)=C1C3(C)C)[C@]1(OC(C)=O)CO[C@@H]1C[C@@H]2O [Taxol]
Escape Velocity (K562 Cells): 8.2 +/− 0.4 um/sec.
